# Source: ChEMBL document CHEMBL1201862, “PubChem BioAssay data set” (2004)
# The source made the active and inactive calls.
# Legend:
# [1] = HepG2 cell cytotoxicity, dose response, cytotoxicity control for non-replicating M. tuberculosis project (AID 489018); assay type: functional; settings: Mycobacterium tuberculosis
# [2] = target: Tumor necrosis factor (Homo sapiens, UniProt P01375); assay: analog potency on TNFa NF-kB signaling – cell-based, revised, SAR follow-up (AID 2337); assay type: functional
# [3] = system: Streptococcus; assay: GAS UMAA2166 growth inhibition – luminescence, BacTiterGlo, counter-screen for streptokinase expression inhibitor project, dose response (AID 1915); assay type: functional, organism-based;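 note: potency for reduction of bacterial viability or growth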
# [4] = system: HEK293; assay: cells; settings: Homo sapiens
# [5] = loss of viability in HepG2 cells – cell-based, CellTiter-Glo, cherry-picked, cytotoxicity control for Shn3 inhibitor project, dose response (AID 624134); assay type: functional
# [6] = Vero E6 cell cytotoxicity, dose response, cytotoxicity control for non-replicating M. tuberculosis project, secondary assay (AID 492998); assay type: functional, VeroE6; settings: Vero C1008
# [7] = cells; assay type: functional
# [8] = system: Streptococcus sp. 'group A'; assay: Streptococcus pyogenes SK(-)GAS viability under kanamycin – luminescence, BacTiterGlo, confirmation, counter-screen for streptokinase expression inhibitor project, dose response (AID 1900); assay type: functional, organism-based
# [9] = target: T1, Microphthalmia-associated transcription factor (Homo sapiens, UniProt O75030); assay: reducers of TRPM1 reporter luminescence, concentration series – cell-based, SK-MEL-5, cherry-picked, set 3, MITF inhibitor project, dose response (AID 493073); assay type: functional;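 note: SK-MEL-5 melanoma cells with luciferase driven by the MITF target TRPM1 promoter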
# T1 sequence (O75030 whole entry): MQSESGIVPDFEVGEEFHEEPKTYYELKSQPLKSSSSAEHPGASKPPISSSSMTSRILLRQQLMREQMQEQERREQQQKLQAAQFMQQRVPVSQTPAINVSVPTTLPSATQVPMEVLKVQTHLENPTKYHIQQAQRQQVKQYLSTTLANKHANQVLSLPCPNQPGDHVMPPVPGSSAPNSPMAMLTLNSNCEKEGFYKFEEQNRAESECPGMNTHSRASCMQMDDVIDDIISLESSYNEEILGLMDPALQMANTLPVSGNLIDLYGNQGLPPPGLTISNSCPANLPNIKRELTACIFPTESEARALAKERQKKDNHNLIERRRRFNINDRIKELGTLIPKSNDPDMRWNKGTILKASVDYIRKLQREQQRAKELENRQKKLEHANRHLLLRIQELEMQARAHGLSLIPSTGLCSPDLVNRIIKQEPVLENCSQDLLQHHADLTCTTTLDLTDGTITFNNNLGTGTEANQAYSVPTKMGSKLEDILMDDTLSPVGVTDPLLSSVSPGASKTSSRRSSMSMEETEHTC
# [10] = target: T2, Nucleotide-binding oligomerization domain-containing protein 1 (Homo sapiens, UniProt Q9Y239); assay: blockers of NOD1 pathway activity – revised, SAR follow-up (AID 2333); assay type: functional
# T2 sequence (Q9Y239 whole entry): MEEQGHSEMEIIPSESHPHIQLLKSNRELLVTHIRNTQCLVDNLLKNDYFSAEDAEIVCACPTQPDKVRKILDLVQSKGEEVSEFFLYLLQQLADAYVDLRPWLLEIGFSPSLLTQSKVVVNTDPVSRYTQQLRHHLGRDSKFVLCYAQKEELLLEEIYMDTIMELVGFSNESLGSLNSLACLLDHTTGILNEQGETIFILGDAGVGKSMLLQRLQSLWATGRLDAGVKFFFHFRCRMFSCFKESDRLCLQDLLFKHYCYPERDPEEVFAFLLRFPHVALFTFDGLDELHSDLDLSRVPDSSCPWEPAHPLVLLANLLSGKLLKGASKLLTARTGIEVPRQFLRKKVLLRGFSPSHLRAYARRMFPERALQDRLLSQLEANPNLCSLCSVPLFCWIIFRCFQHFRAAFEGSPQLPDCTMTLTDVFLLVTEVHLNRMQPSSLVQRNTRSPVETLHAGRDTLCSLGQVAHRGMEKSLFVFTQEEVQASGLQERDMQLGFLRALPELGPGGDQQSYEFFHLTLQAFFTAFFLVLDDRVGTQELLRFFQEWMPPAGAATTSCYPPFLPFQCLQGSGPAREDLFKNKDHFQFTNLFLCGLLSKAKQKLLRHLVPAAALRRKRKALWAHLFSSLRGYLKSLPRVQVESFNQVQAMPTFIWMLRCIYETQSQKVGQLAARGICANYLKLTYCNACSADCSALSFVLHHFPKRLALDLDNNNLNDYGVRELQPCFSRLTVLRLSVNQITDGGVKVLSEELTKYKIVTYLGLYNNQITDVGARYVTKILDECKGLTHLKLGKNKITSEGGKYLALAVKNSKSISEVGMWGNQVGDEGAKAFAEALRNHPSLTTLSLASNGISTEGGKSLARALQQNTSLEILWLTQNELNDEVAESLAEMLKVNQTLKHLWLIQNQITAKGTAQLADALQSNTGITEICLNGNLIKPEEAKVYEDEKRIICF
# [11] = THP-1 cell cytotoxicity, dose response, cytotoxicity control for non-replicating M. tuberculosis project (AID 489025); assay type: functional
# [12] = reduction of Shn3 3'UTR-driven luciferase in osteoblasts – cell-based, Clone20 osteoblasts, firefly luciferase, cherry-picked, dose response (AID 624132); assay type: functional;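 note: firefly luciferase luminescence from reporter carrying the Shn3 3'UTR in osteoblasts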
# [13] = non-specific 3'UTR reporter inhibition in Clone20-Shn3RL – cell-based, Renilla luciferase, cherry-picked, counter-screen for Shn3 inhibitor project, dose response (AID 624133); assay type: functional
# [14] = A Cell Based Secondary Assay To Explore Cytotoxicity of Compounds that Sensitize Mycobacterium Tuberculosis to Beta-Lactam Antibiotics.; assay type: functional
# [15] = target: T3, Mannose-6-phosphate isomerase (Homo sapiens, UniProt P34949); assay: phosphomannose isomerase inhibition – biochemical, fluorescence intensity, confirmation (AID 1535)
# T3 sequence (P34949 whole entry): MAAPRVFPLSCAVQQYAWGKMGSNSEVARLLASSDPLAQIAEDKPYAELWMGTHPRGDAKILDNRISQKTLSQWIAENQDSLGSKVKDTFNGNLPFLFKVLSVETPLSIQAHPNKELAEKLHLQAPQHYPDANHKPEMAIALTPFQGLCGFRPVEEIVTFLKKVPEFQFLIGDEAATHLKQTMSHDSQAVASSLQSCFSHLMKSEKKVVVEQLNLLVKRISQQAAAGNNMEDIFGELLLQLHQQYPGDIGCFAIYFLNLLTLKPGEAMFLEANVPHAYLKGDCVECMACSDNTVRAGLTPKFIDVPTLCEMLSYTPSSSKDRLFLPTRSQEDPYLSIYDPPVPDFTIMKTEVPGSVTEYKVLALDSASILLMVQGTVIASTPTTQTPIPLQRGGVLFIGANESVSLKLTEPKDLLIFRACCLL
# [16] = target: Phosphomannomutase 2 (Homo sapiens, UniProt O15305); assay: Counter screen SAR assay for PMM2 inhibitors via a fluorescence intensity assay. [Related pubchem assays (depositor defined):AID1545, AID1574]
# Chain of Phosphomannomutase 2 (O15305 whole entry): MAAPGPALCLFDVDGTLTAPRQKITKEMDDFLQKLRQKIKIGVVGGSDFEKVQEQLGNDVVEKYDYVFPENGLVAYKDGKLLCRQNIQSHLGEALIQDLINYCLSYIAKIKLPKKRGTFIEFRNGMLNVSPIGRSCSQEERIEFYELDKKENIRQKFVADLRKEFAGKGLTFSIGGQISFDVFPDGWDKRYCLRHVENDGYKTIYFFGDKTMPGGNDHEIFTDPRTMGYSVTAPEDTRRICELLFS
# [17] = target: Cytochrome P450 2D6 (Homo sapiens, UniProt P10635);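 note: CYP2D6 member of a cytochrome P450 panel assay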
# Chain of Cytochrome P450 2D6 (P10635 whole entry): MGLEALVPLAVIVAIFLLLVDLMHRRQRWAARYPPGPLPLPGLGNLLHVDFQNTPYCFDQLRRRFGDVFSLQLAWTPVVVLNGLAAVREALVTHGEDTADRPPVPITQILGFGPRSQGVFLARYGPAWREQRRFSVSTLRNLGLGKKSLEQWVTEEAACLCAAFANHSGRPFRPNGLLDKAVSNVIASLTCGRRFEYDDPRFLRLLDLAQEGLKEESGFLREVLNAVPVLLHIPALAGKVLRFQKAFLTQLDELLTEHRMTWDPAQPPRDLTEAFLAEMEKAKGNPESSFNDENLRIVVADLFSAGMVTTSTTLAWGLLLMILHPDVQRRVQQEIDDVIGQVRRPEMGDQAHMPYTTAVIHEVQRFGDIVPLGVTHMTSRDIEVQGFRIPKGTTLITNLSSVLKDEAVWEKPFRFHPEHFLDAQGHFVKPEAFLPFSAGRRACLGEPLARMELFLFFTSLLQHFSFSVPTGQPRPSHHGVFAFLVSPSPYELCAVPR
# [18] = target: T4, Voltage-gated N-type calcium channel alpha-1B subunit/Amyloid beta A4 precursor protein-binding family A member 1 (Homo sapiens, UniProt Q00975+Q02410); assay type: protein assay
# T4 sequence (Q00975 whole entry): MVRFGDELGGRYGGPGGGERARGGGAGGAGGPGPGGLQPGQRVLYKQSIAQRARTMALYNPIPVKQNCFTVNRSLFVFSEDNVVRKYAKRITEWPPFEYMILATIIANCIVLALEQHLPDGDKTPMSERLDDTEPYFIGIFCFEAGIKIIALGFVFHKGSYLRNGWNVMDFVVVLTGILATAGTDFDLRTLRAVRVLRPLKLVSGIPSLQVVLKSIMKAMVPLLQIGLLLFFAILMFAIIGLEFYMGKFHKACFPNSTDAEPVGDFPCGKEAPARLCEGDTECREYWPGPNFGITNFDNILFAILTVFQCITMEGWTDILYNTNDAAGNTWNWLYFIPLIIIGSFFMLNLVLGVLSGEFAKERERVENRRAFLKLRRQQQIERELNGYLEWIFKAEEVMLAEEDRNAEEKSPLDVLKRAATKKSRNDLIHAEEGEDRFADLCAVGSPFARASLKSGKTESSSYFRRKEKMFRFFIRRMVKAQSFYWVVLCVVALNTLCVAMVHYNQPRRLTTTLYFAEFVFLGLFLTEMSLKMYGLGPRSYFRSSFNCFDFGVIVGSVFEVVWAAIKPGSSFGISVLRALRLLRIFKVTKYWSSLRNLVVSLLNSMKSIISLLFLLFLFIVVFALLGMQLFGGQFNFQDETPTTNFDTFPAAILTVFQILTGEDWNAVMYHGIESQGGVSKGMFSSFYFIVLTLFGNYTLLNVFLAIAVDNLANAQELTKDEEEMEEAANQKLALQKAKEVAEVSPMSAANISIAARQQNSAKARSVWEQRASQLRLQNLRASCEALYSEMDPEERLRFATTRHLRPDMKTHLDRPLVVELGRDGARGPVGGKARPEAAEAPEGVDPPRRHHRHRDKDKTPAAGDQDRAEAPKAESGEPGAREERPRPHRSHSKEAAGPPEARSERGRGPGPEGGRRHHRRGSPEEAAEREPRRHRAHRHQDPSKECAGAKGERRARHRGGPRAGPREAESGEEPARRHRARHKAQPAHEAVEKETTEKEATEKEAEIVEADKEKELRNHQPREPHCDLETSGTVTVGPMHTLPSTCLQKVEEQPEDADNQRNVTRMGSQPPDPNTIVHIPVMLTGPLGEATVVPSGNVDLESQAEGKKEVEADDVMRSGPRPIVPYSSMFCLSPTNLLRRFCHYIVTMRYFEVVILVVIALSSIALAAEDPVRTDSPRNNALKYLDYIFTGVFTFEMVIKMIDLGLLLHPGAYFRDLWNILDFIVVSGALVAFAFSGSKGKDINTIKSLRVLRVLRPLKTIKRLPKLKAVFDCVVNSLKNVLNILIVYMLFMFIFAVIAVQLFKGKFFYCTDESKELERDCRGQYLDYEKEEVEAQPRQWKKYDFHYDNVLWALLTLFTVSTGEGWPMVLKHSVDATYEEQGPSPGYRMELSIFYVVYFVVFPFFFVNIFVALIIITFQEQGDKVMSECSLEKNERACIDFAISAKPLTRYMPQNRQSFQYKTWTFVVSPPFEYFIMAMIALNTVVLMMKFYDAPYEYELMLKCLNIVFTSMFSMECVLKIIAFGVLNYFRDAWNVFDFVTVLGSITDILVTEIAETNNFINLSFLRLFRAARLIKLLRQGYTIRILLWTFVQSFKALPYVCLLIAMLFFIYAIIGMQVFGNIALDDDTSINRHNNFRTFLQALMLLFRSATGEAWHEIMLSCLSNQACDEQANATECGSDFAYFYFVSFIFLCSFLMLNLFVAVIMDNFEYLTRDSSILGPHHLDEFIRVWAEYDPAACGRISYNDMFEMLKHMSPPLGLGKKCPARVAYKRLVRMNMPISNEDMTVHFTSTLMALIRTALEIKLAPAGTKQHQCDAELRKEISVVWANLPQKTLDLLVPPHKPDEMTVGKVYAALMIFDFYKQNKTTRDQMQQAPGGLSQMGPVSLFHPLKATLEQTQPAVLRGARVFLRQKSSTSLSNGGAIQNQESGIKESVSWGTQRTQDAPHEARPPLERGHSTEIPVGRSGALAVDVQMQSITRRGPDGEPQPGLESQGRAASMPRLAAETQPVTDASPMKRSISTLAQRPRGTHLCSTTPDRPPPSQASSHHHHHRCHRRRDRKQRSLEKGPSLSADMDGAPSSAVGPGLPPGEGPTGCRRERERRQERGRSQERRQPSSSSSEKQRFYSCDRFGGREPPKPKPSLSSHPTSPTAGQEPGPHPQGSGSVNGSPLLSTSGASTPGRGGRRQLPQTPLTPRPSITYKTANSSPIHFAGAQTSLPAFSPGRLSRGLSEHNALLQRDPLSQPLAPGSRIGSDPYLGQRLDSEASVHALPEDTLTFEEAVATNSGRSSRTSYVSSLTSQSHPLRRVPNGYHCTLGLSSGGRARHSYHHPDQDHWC
# T4 sequence (Q02410 whole entry): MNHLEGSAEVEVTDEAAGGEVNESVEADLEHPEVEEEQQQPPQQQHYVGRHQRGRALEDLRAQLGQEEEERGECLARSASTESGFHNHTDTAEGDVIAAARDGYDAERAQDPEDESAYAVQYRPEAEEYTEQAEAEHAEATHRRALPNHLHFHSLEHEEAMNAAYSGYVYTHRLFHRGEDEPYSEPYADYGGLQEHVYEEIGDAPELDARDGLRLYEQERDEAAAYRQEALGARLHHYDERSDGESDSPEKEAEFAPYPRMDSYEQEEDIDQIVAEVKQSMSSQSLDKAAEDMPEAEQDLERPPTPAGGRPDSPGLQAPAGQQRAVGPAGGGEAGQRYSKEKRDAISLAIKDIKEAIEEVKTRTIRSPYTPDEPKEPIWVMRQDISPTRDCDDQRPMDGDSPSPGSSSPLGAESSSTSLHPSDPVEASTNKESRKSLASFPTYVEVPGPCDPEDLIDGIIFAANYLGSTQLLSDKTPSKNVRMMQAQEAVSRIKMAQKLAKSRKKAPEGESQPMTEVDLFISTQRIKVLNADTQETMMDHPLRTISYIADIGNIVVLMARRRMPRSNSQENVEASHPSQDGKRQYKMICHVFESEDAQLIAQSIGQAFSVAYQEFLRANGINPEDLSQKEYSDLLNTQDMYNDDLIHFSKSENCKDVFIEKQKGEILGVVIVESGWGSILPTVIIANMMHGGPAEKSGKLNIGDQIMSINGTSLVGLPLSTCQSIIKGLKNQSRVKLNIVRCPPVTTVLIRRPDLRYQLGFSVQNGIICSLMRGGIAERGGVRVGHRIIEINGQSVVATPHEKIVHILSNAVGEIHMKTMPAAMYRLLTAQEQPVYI
# [19] = target: T4, Voltage-gated N-type calcium channel alpha-1B subunit/Amyloid beta A4 precursor protein-binding family A member 1; assay type: protein assay; remark: listed apart in the source
# [20] = target: Kallikrein-7 (Homo sapiens, UniProt P49862); assay: Fluorescence Intensity-based biochemical primary high throughput dose response assay to identify activators of kallikrein-7 (K7) zymogen.
# Chain of Kallikrein-7 (P49862 whole entry): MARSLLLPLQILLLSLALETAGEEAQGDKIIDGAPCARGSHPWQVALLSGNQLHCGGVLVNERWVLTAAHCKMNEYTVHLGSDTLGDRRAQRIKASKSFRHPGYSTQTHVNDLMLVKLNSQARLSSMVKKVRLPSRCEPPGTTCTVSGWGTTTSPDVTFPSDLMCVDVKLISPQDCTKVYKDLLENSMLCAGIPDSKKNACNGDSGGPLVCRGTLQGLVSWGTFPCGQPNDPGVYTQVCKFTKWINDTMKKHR
# [21] = target: Eukaryotic translation initiation factor 4E (Mus musculus, UniProt P63073); assay: blockers of eIF4G binding by eIF4E – biochemical, TR-FRET, dose response (AID 855); assay type: functional;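 note: potency for disrupting eIF4E binding to eIF4GI seen as loss of FRET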
# Chain of Eukaryotic translation initiation factor 4E (P63073 whole entry): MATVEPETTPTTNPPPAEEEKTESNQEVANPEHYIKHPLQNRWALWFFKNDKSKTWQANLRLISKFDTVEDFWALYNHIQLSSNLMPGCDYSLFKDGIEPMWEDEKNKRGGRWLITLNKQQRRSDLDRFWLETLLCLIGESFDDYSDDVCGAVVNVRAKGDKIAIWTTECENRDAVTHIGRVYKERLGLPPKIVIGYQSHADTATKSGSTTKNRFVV
# [22] = target: T4, Voltage-gated N-type calcium channel alpha-1B subunit/Amyloid beta A4 precursor protein-binding family A member 1; assay: disruptors of Mint-PDZ/N-type channel peptide interaction – biochemical, HTRF, SAR follow-up (AID 2489); assay type: functional
# [23] = target: T4, Voltage-gated N-type calcium channel alpha-1B subunit/Amyloid beta A4 precursor protein-binding family A member 1; assay: disruptors of Mint-PDZ/N-type channel peptide interaction – biochemical, HTRF, set 2, SAR follow-up (AID 434980); assay type: functional
# [24] = target: Induced myeloid leukemia cell differentiation protein Mcl-1 (Homo sapiens, UniProt Q07820); assay type: functional
# [25] = target: SUMO E1/E2 (Homo sapiens, UniProt P63279+Q9UBE0+Q9UBT2); assay: SAR analysis of SUMOylation using HTRF in an in-Vitro dose response assay. [Related pubchem assays (depositor defined):AID2006, AID2011, AID2018, AID2069, AID2658]; assay type: functional
# [26] = target: T5, Sentrin-specific protease 1 (Homo sapiens, UniProt Q9P0U3); assay: SENP1 catalytic domain blockers, concentration series – biochemical, kinetic FRET, dose response (AID 651697); assay type: functional; settings: read-out: IC50_Mean
# T5 sequence (Q9P0U3 whole entry): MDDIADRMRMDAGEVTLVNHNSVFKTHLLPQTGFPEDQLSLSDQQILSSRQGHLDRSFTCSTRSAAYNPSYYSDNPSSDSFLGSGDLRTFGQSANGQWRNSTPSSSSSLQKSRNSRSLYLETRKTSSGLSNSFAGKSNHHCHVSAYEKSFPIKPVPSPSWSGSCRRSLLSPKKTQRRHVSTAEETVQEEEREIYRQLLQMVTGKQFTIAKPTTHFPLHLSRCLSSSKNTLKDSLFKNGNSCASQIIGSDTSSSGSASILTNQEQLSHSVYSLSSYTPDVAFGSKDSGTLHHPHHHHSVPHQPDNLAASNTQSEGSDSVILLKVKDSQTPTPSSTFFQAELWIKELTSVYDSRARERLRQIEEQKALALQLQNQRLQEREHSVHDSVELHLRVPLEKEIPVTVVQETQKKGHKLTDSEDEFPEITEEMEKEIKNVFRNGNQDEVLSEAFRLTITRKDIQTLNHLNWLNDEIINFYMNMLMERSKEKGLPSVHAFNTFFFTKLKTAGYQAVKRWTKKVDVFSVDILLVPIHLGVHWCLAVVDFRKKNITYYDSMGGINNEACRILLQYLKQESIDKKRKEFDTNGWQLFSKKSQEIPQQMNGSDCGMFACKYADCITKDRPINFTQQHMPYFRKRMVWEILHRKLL
# [27] = target: Cytochrome P450 2C9 (Homo sapiens, UniProt P11712)
# [28] = target: T5, Sentrin-specific protease 1; assay: Dose response confirmation of small molecule inhibitors of the catalytic domain of the SUMO protease, SENP1 in a FRET assay.; assay type: functional; settings: read-out: IC50_Mean
# [29] = target: Cytochrome P450 2C19 (Homo sapiens, UniProt P33261); assay: Cytochrome panel assay with activity outcomes. Panel member name: p450-cyp2c19 Compounds with AC50 equal or less than 10 uM are considered active; assay type: functional; settings: read-out: AC50
# [30] = system: HEK293; assay: cells; settings: Homo sapiens; remark: listed apart in the source
# [31] = system: HEK293; assay: cells; settings: Homo sapiens; remark: listed apart in the source
# [32] = target: DNA dC->dU-editing enzyme APOBEC-3A (Homo sapiens, UniProt P31941); assay: A3A deaminase inhibition for selectivity – biochemical, dose response (AID 504722); assay type: functional
# Chain of DNA dC->dU-editing enzyme APOBEC-3A (P31941 whole entry): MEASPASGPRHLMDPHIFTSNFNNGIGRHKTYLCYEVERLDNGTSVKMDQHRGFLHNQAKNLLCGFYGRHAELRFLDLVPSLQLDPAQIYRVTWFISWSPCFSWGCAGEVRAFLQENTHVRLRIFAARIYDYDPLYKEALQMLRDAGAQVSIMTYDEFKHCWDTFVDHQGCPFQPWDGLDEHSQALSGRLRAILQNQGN
# [33] = target: Glucose-6-phosphate 1-dehydrogenase (Homo sapiens, UniProt P11413); assay: inhibition of Homo sapiens G6PD, dose series – biochemical, fluorescence, selectivity assay for P. falciparum G6PD inhibitor project, dose response (AID 504792); assay type: functional
# [34] = target: Large T antigen (Simian virus 40, UniProt P03070); assay type: functional, Betapolyomavirus macacae;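 note: Confirmatory-stage PubChem screen for compounds that inhibit SV40 T antigen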
# [35] = target: T3, Mannose-6-phosphate isomerase; assay: MPI inhibition at elevated mannose 6-phosphate – biochemical, fluorescence intensity, high mannose 6-phosphate, primary screen (AID 1220)
# [36] = target: DNA dC->dU-editing enzyme APOBEC-3G (Homo sapiens, UniProt Q9HC16); assay: Dose Response confirmation of small molecule APOBEC3G DNA Deaminase Inhibitors via a fluorescence-based single-stranded DNA deaminase assay. [Related pubchem assays (depositor defined):AID493012, AID493028]; assay type: functional
# Chain of DNA dC->dU-editing enzyme APOBEC-3G (Q9HC16 whole entry): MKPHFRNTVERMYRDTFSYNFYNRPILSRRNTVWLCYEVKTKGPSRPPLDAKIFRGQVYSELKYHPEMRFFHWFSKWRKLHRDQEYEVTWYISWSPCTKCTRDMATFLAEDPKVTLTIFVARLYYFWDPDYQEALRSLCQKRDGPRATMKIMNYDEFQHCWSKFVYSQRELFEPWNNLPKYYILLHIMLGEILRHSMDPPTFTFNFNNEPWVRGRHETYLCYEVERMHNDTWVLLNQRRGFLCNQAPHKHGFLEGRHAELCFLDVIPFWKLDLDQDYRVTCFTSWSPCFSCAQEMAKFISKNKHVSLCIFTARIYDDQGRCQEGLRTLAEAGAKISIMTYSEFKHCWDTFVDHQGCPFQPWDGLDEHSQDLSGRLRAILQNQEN
# [37] = target: T3, Mannose-6-phosphate isomerase; assay: MPI enzyme activity inhibition – biochemical, fluorescence intensity, coupled assay, primary screen (AID 1209)
structure (smiles),measurement,setting,value
CCCCCn1c(=O)c(C(=O)Nc2cnccn2)c(O)c2ccccc21,CC50,[1],13.5 µM (active)
same,IC50,[2],> 20 µM (inactive)
same,EC50,[3],5.32 µM (active)
same,IC50,[4],> 20 µM (inactive)
same,AC50,[5],> 70 µM (inactive)
same,CC50,[6],4.02 µM (active)
same,IC50,[7],3.04 µM (active)
same,EC50,[8],3.24 µM (active)
same,AC50,[9],5.93 µM (active)
same,IC50,[10],11.3 µM (active)
same,CC50,[11],5.17 µM (active)
same,AC50,[12],1.54 µM (active)
same,AC50,[13],3.1 µM (active)
same,CC50,[14],2.4 µM (active)
Cc1cc2n(n1)SC(Nc1ccccc1)N2 (stereo unspecified),IC50,[15],> 50 µM (inactive)
same,IC50,[16],> 100 µM (inactive)
N/C(CC/C(N)=N/O)=N\O,AC50,[17],inconclusive
CCN(CC)C(=O)COC(=O)c1cc(-c2ccco2)nc2ccccc12,IC50,[18],4.92 µM (active)
same,IC50,[19],12.7 µM (active)
same,EC50,[20],23 µM (inactive)
same,IC50,[21],50 µM (inactive)
same,IC50,[22],13.9 µM (active)
same,IC50,[23],19.2 µM (active)
same,IC50,[24],3.26 µM (active)
same,IC50,[25],2.71 µM (active)
CCOc1ccc(/C=C/C(=O)Nc2ccc(OC)cc2[N+](=O)[O-])cc1,IC50,[26],6.32 µM (active)
same,AC50,[27],inconclusive
same,AC50,[17],inconclusive
same,IC50,[28],5.84 µM (active)
same,AC50,[29],39.8 µM (inconclusive)
CCCCSc1nc2c(=S)n(C)c(=O)n(C)c2[nH]1,EC50,[30],> 59.5 µM (inactive)
same,EC50,[31],> 59.5 µM (inactive)
Cc1ccnc(-n2sc3ccccc3c2=O)n1,IC50,[32],> 100 µM (inactive)
same,IC50,[33],36.1 µM (inactive)
same,IC50,[15],4.43 µM (active)
same,IC50,[34],12.5 µM (active)
same,IC50,[35],17.8 µM (active)
same,IC50,[36],15.4 µM (active)
same,IC50,[16],65.9 µM (active)
same,IC50,[37],11.2 µM (active)
same,CC50,[11],> 40 µM (active)
